In patent US20020147237A1, “Preservation of bodily protein” (priority 2001, published 2002):

Legend:
[1] = system: hind leg skeletal muscle; test: hind leg turnover (plasma flow times arterio-venous difference; negative = release, positive = uptake); assay type: in vivo, piglets; details: Group 1; 60 min; Dosage 1: NH4+ 12.3 μmol·kg^−1·min^−1 i.v. alone
Description: (§1) Food was withheld from the animals for twelve hours prior to the experiment, but they had free access to water. […] In addition, all animals were given an intravenous bolus of morphine 1 mg·kg^-1 and, following tracheotomy, pancuronium bromide 0.3 mg·kg^-1. […] After the last measurements, still under anaesthesia, the animals were killed with an overdose of potassium chloride. After induction of anaesthesia the animals were tracheotomised and ventilated through an 8 mm endotracheal tube (Mallincrodt Laboratories, Athlone, Ireland) with a Servo ventilator […] ([…], Solna, Sweden). […] The body temperature was kept stable by means of a thermostat controlled heating pad and warmed intravenous infusions. After skin incisions, a catheter was introduced in the left external jugular vein and advanced to the right hepatic vein under fluoroscopic control. Its position was confirmed by a contrast injection. The right external jugular vein was used for placement of a central venous catheter and a 7F pulmonary artery thermodilution catheter. An arterial catheter was inserted in a subclavian branch and advanced to a central position. Through a small suprapubic incision, a urinary catheter was placed in the bladder. A cutdown was made to place an ultrasonic flow probe (Transonic Systems Inc., Ithaca, N.Y., USA) around the femoral artery and to cannulate the femoral vein for blood sampling. Arterial blood gases were analysed on an ABL300/OSM3 system (Radiometer, Copenhagen, Denmark). […] The column eluate was mixed with ninhydrin reagent for amino acid detection. […] Blood glucose was analysed on a Reflolux® II (Boehringer Mannheim, Germany), using the glucose-oxidase/peroxidase reaction. Arterial and hepatic venous blood was drawn for calculations of splanchnic blood flow. […] The mean value of at least three measurements was adopted. […] Femoral artery plasma flow was calculated as blood flow (1-EVF). The turnover of amino acids, ammonium and urea were calculated as plasma flow times the arterio-venous plasma concentration difference with negative values indicating release and positive values uptake. After anaesthesia and surgical preparation the piglets were allowed a stabilisation period of one hour and randomly assigned to either Group 1 or Group 2.

[2] = system: splanchnic area; test: splanchnic turnover (plasma flow times arterio-venous difference; negative = release, positive = uptake); assay type: in vivo, piglets; details: 60 min
Description: as §1, with “Sweden). Ventilation was maintained at 25 breaths per minute with a positive end-expiratory pressure of 5 cm of H2O.” for “Sweden).”, “adopted. Calculation of splanchnic blood flow was carried out according to the constant dye infusion technique (10). […] Splanchnic plasma flow was calculated according to a formula derived from Fick's principle: [formula]” for “adopted.”

[3] = system: anaesthetised piglet model; test: arterial plasma amino acid, NH4, urea and blood glucose concentrations in anaesthetised piglets; assay type: in vivo; details: for arterial glutamine level after 60 minutes (in words): after one hour of infusion of the single substance
Description: Food was withheld from the animals for twelve hours prior to the experiment, but they had free access to water. Anaesthesia was induced by an intramuscular injection of xylazine 2.2 mg·kg^-1, tiletamine 3 mg·kg^-1+zolazepam 3 mg·kg^-1 and atropine 0.04 mg·kg^-1. In addition, all animals were given an intravenous bolus of morphine 1 mg·kg^-1 and, following tracheotomy, pancuronium bromide 0.3 mg·kg^-1. […] After the last measurements, still under anaesthesia, the animals were killed with an overdose of potassium chloride. After induction of anaesthesia the animals were tracheotomised and ventilated through an 8 mm endotracheal tube (Mallincrodt Laboratories, Athlone, Ireland) with a Servo ventilator […] ([…], Solna, Sweden). Ventilation was maintained at 25 breaths per minute with a positive end-expiratory pressure of 5 cm of H2O. […] The body temperature was kept stable by means of a thermostat controlled heating pad and warmed intravenous infusions. After skin incisions, a catheter was introduced in the left external jugular vein and advanced to the right hepatic vein under fluoroscopic control. Its position was confirmed by a contrast injection. The right external jugular vein was used for placement of a central venous catheter and a 7F pulmonary artery thermodilution catheter. An arterial catheter was inserted in a subclavian branch and advanced to a central position. Through a small suprapubic incision, a urinary catheter was placed in the bladder. A cutdown was made to place an ultrasonic flow probe (Transonic Systems Inc., Ithaca, N.Y., USA) around the femoral artery and to cannulate the femoral vein for blood sampling. Arterial blood gases were analysed on an ABL300/OSM3 system (Radiometer, Copenhagen, Denmark). […] The column eluate was mixed with ninhydrin reagent for amino acid detection. […] Blood glucose was analysed on a Reflolux® II (Boehringer Mannheim, Germany), using the glucose-oxidase/peroxidase reaction. Arterial and hepatic venous blood was drawn for calculations of splanchnic blood flow. […] The mean value of at least three measurements was adopted. After anaesthesia and surgical preparation the piglets were allowed a stabilisation period of one hour and randomly assigned to either Group 1 or Group 2.

[4] = system: anaesthetised piglet model; test: blood gas and hemodynamic variables in anaesthetised piglets during i.v. infusion; assay type: in vivo; details: 60 min
Description: as §1, with “Sweden). Ventilation was maintained at 25 breaths per minute with a positive end-expiratory pressure of 5 cm of H2O.” for “Sweden).”, “adopted. Calculation of splanchnic blood flow was carried out according to the constant dye infusion technique (10). […] Splanchnic plasma flow was calculated according to a formula derived from Fick's principle: [formula]” for “adopted.”

[5] = Group 1, Dosage 1: NH4+ 12.3 μmol·kg^−1·min^−1 i.v. alone
[6] = Group 1, 60 min, Dosage 1: NH4+ 12.3 μmol·kg^−1·min^−1 i.v. alone
[7] = Group 2, Dosage 1: α-ketoglutarate 2.85 μmol·kg^−1·min^−1 i.v. alone
[8] = Group 2, 60 min, Dosage 1: α-ketoglutarate 2.85 μmol·kg^−1·min^−1 i.v. alone

Cl.N [NH4Cl, ammonium chloride]
Alanine turnover, hind leg [1]: -0.13 ± 0.04 µmol/min/kg
Arginine turnover, hind leg [1]: 0.01 ± 0.005 µmol/min/kg
FE (%)-NH4^+, hind leg [1]: 46 ± 3 a %
Glutamate turnover, hind leg [1]: 0.22 ± 0.03 µmol/min/kg
Glutamine turnover, hind leg [1]: -0.09 ± 0.04 µmol/min/kg
NH4^+ turnover, hind leg [1]: 0.22 ± 0.03 a μmol·min^−1·kg^−1
Total AA turnover, hind leg [1]: 0.12 ± 0.23 µmol/min/kg
Urea turnover, hind leg [1]: 0.2 ± 0.2 µmol/min/kg
Alanine turnover, splanchinc [2, 5]: 2.22 ± 0.28 µmol/min/kg
Arginine turnover, splanchinc [2, 5]: -0.23 ± 0.10 µmol/min/kg
FE (%)-NH4^+, splanchinc [2, 5]: 81 ± 4 a %
Glutamate turnover, splanchinc [2, 5]: -4.32 ± 0.28 µmol/min/kg
Glutamine turnover, splanchinc [2, 5]: 2.59 ± 0.56 µmol/min/kg
NH4^+ turnover, splanchinc [2, 5]: 3.09 ± 0.28 a μmol·min^−1·kg^−1
Total AA turnover, splanchinc [2, 5]: 3.93 ± 2.08 µmol/min/kg
Urea turnover, splanchinc [2, 5]: -3.2 ± 1.4 µmol/min/kg
Glucose concentration [3, 6]: 5.5 ± 0.5 mmol/L
arterial Alanine concentration [3, 6]: 412 ± 44 a μmol · L^−1
arterial Arginine concentration [3, 6]: 80 ± 8 µmol/L
arterial Glutamate concentration [3, 6]: 191 ± 20 µmol/L
arterial Glutamine concentration [3, 6]: 450 ± 26 a μmol · L^−1
arterial NH4^+ concentration [3, 6]: 135 ± 14 a μmol · L^−1
arterial Total AA concentration [3, 6]: 3034 ± 139 µmol/L
arterial Urea concentration [3, 6]: 3.4 ± 0.3 mmol/L
arterial glutamine level after 60 minutes (in words) [3]: increased
Arterial pH [4, 5]: 7.43 ± 0.01 a
C.O. [4, 5]: 138 ± 17 mL/min/kg
Leg blood flow [4, 5]: 4.7 ± 0.4 mL/min/kg
PaCO2 [4, 5]: 5.18 ± 0.06 kPa
Spl. blood flow [4, 5]: 43 ± 5 mL/min/kg
Leg blood flow ([4]; Group 1, Dosage 1: NH4+ 12.3 μmol·kg^−1·min^−1 i.v. alone, listed as ammonium chloride): 4.7 ± 0.4 a ml · min^−1 · kg^−1

O=C(O)CCC(=O)C(=O)O [α-KGA, α-ketoglutaric acid]
FE (%)-NH4^+, splanchinc [2, 7]: 28 ± 10%
Glucose concentration [3, 8]: 5.6 ± 0.4 mmol/L
arterial Alanine concentration [3, 8]: 462 ± 34 µmol/L
arterial Arginine concentration [3, 8]: 75 ± 5 µmol/L
arterial Glutamate concentration [3, 8]: 264 ± 32 µmol/L
arterial Glutamine concentration [3, 8]: 361 ± 24 z μmol · L^−1
arterial Urea concentration [3, 8]: 2.7 ± 0.2 mmol/L
drop of arterial glutamine concentration compared to the baseline level ([3]; Group 2, after one hour of α-KGA infusion alone): 9±2%
arterial glutamine level after 60 minutes (in words) [3]: decreased
Arterial pH [4, 7]: 7.47 ± 0.01
C.O. [4, 7]: 144 ± 10 a ml · min^−1 kg^−1
PaCO2 [4, 7]: 5.27 ± 0.06 kPa
